Drawing on ChEMBL document CHEMBL1126464, “Carbamate series of juvenoids” (Bioorg Med Chem Lett, 1992), this text covers ED50 and IC50 for five molecules.

One assay deals with Dysdercus cingulatus. As to the kind of experiment: Effective dose that causes 50 % inhibition of Dysdercus cingulatus (DYS) was determined. Format: functional.
The subject of the next assay is Acyrthosiphon pisum. As to the kind of experiment: Concentration required for 50% inhibition of acyrthosiphon pisum (ACY) was expressed as percent of active ingredient. Format: functional, organism-based.
For another assay, the system named is Galleria mellonella. As to the kind of experiment: Effective dose that causes 50 % inhibition of Galleria mellonella (GAL) was determined. Format: functional.

Structures are written as SMILES. Where only a bound is given, the exact number is not on record here.

The ED50 is the dose at which the effect has come halfway, by size or by number of responders. Low readings indicate an effect at a small dose, high ones a need for a large dose. Take `CCOC(=O)NCCOc1ccc(CC2CCCCC2=O)cc1` (stereo not given): the median effective dose (ED50) amounted to 8 µg/kg in the assay on Dysdercus cingulatus and 0.2 µg/kg in the assay on Galleria mellonella. In the assay with Acyrthosiphon pisum, this molecule had an IC50 of 0.05%.

On to `CCOC(=O)NCCOc1ccc(C[C@H]2CCCC[C@@H]2O)cc1`, for which the figures for the ED50 in the assay on Dysdercus cingulatus and with Galleria mellonella were 40 µg/kg and 0.8 µg/kg, respectively. In the assay with Acyrthosiphon pisum, the IC50 is reported as over 0.1%.

In the case of `CCOC(=O)NCCOc1ccc(C[C@@H]2CCCC[C@@H]2O)cc1`, the values for the median effective dose (ED50) in the assay on Dysdercus cingulatus and in the assay on Galleria mellonella were 1 µg/kg and 0.8 µg/kg, respectively. The IC50 with Acyrthosiphon pisum is over 0.1%.

`CCOC(=O)NCCOc1ccc(CC2CCCCC23OCCO3)cc1` (stereo not given): the median effective dose (ED50) in the assay with Dysdercus cingulatus stood at 80 µg/kg; with Galleria mellonella, 0.8 µg/kg. The molecule further had an IC50 in the assay with Acyrthosiphon pisum of 0.005%.

For the molecule `CCOC(=O)/C=C(C)/C=C/CC(C)CCCC(C)C` (stereo not given) [HYDROPRENE], the 50% effective dose (ED50) came to 1000 µg/kg in the assay with Dysdercus cingulatus and 10 µg/kg in the assay with Galleria mellonella. In the assay with Acyrthosiphon pisum, the IC50 turned out to be 0.04%.
